Data published in patent US20100069254A1, “Cell Culture Model for Demyelination/Remyelination” (priority 2008, published 2010).
“Also recorded” adds a separate entry of the source.

Columns and labels:
Xenopus tadpoles = conditions: 0.1 to 0.2 μg/ml in tadpole bins; cited from earlier work
[1] = system: oligodendrocytes and neurons; test: MTS metabolic activity assay (CellTiter 96 AQueous One) of demyelinated cell cultures
Description: Metabolic activity of cells was then measured by an MTS assay as described in the text.
Monitoring of metabolic activity (CellTiter 96® AQueous One; Promega) is used to identify concentrations that caused a minimum amount of damage to the oligodendrocytes and neurons. In this assay a tetrazolium compound (MTS) and an electron coupling reagent (phenazine ethosulfate) are used for calorimetric detection of metabolic activity. MTS is bioreduced, presumably by NADPH or NADH, into a colored formazan product that is soluble in tissue culture medium and can be detected spectrophotometrically. Absorbance at about […] is proportional to metabolic activity and is commonly used to monitor the number of living cells in culture.

animals = conditions: injection of 2 μl of a 1% solution; cited from earlier work

| Compound | demyelination in Xenopus tadpoles (Xenopus tadpoles) | effect on cellular metabolism / damage to neural or glial cell bodies (metabolic assay) ([1]; 10 μg/ml, 10 minute exposure) | local demyelination in animals (animals) | cellular damage (metabolic assay) ([1]; relatively low concentrations (0.1%), 10 minutes) |
| --- | --- | --- | --- | --- |
| Oc1c(Cl)cc(Cl)c(Cl)c1Cc1c(O)c(Cl)cc(Cl)c1Cl [hexachlorophene] | cause demyelination | without an observable effect on cellular metabolism; also recorded: mild enough to prevent significant damage to the neural or glial cell bodies | – | – |
| lysophosphatidylcholine | – | – | cause local demyelination | significant cellular damage |
